One data set concerns the target T1, MSMEG_3955 (Mycolicibacterium smegmatis, UniProt A0QZA6).
T1 construct: ~36 kDa subunit, homotrimer ~115 kDa; co-purifies with FMN
Kind of data set: NADPH oxidation at […] nm. Conditions: 200 uM NADPH, 50 uM FMN, 1.6 uM enzyme, 50 mM Tris-HCl pH 7.6, 25 °C, aerobic. Type of data set: biochemical.

Data set [1] deals with the molecule itself. As to the kind of experiment: native gel or EMSA; NATIVE-PAGE (12% in the methods, 10% in the legend of Fig. 3a) of purified protein loaded without any treatment, 10 ug (Fig. 3a) or 20 ug each of wild type and mutant (Fig. 2a); band at ~115 kDa against ~36 kDa on SDS-PAGE. (In general: Mobility shift assays separate free from complexed probe on a gel.)

The values below come from PMC8605562, “MSMEG_3955 from Mycobacterium smegmatis is a FMN bounded homotrimeric NAD(P)H:Flavin mononucleotide (FMN) oxidoreductase” (BMC Microbiology, 2021).

T1 sequence (A0QZA6 entry or part of it): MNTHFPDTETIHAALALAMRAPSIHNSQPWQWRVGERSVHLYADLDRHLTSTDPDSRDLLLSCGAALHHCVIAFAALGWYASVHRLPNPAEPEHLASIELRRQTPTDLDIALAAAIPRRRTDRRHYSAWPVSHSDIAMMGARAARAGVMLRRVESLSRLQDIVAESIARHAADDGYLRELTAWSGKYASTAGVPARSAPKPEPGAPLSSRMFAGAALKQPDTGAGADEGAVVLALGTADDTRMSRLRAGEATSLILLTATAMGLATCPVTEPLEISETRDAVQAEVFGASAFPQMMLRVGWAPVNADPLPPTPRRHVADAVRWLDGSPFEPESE

Regarding `NC(=O)C1=CN([C@@H]2O[C@H](COP(=O)(O)OP(=O)(O)OC[C@H]3O[C@@H](n4cnc5c(N)ncnc54)[C@H](OP(=O)(O)O)[C@@H]3O)[C@@H](O)[C@H]2O)C=CC1` [NADPH], the “NADPH oxidation at 340 nm” value at MSMEG_3955 was “showed oxidative NADPH dependent FMN reductase activity as oxidation of NADPH was seen”.

B1: MSMEG_3955 with cysteine 63 replaced by alanine (enzyme, Mycobacterium smegmatis mc2 155, UniProt A0QZA6 1-334, looked up)
chain: MNTHFPDTETIHAALALAMRAPSIHNSQPWQWRVGERSVHLYADLDRHLTSTDPDSRDLLLSAGAALHHCVIAFAALGWYASVHRLPNPAEPEHLASIELRRQTPTDLDIALAAAIPRRRTDRRHYSAWPVSHSDIAMMGARAARAGVMLRRVESLSRLQDIVAESIARHAADDGYLRELTAWSGKYASTAGVPARSAPKPEPGAPLSSRMFAGAALKQPDTGAGADEGAVVLALGTADDTRMSRLRAGEATSLILLTATAMGLATCPVTEPLEISETRDAVQAEVFGASAFPQMMLRVGWAPVNADPLPPTPRRHVADAVRWLDGSPFEPESE
notes: MSMEG_3955, Mycobacterium smegmatis mc2 155, made by site-directed mutagenesis on the pET-28a plasmid of the wild-type gene; cysteine (TGC) at position 63 replaced with alanine (GCC); Same construct as m1 apart from C63A; also called cys-63 mutated native protein MSMEG_3955; mutated protein; source: E. coli BL21 (DE3), pET-28a, purified (Ni-NTA)
Consider B1, for which, in data set [1], the binding result is on record as “binds”.
